Results taken from PMC3274548, “Toward New Therapeutics for Skin and Soft Tissue Infections: Propargyl-Linked Antifolates Are Potent Inhibitors of MRSA and Streptococcus pyogenes” (PLoS ONE, 2012).
≈ marks a conversion by molar mass, not a printed value. Read-outs that look alike come from different tables or passages of the source.

Key:
[1] = tested on: hVISA Mu3; assay: MIC against clinical isolates of MRSA; format: cell-based; conditions: Staphylococcus aureus; heteroresistant vancomycin intermediate S. aureus; read-out: MIC hVISA Mu3
[2] = tested on: Streptococcus pyogenes; assay: MIC, broth microdilution with Alamar Blue; format: cell-based; conditions: for Selectivity S. pyogenes: IC50 (MCF10)/MIC (pathogen), both values in µM; for MIC: Streptococcus pyogenes
Method: (§1) Stock solutions of standard antibiotics and test compounds were made at 50 mM in DMSO. […] For susceptibility testing, 10 µL of glycerol stock was suspended in a 10 mL shake flask culture of chemically defined Isosensitest broth (Oxoid) supplemented with 2% w/v glucose. A sample of the shake flask culture was diluted to 1×10^6 cells/mL in media and added to 96-well test plates (100 µL per well) containing test compounds dispensed in DMSO (2 µL) using serial two-fold dilutions. After an incubation period (30°C) determined from the strain specific doubling time, a 0.03% w/v aqueous solution of resazurin (10 µL) was added and the plates were allowed to incubate; each well was then scored for dye reduction.

[3] = tested on: HA-MRSA; assay: MIC against clinical isolates of MRSA; format: cell-based; conditions: Staphylococcus aureus, clinical isolate, read-out: MIC HA-MRSA
[4] = tested on: USA300 CA-MRSA; assay: MIC against clinical isolates of MRSA; format: cell-based, Staphylococcus aureus; conditions: Staphylococcus aureus, clinical isolate, read-out: MIC USA300 CA-MRSA
[5] = tested on: MCF-10 cells; assay: Mammalian cell toxicity (Alamar Blue); format: cell-based; conditions: Homo sapiens, MCF10; cytotoxicity, 4 h incubation; read-out: IC50 MCF-10
Method: Adherent cell lines were maintained in Eagle's Minimal Essential Media (Sigma-Aldrich, St. Louis, MO, USA) with 2 mM glutamine and Earle's Balanced Salt Solution (HyClone, Logan, UT, USA) adjusted to contain 1.5 g/L sodium bicarbonate, 0.1 mM non-essential amino acids, 1 mM sodium pyruvate and 10% fetal calf serum. Fetal calf serum used in these assays was lot matched throughout. […] Toxicity assays were conducted between passages 10–20. Target compound toxicity was measured by incubating the test compound with the cells for 4 h, washing the cells and finally treating the cells with Alamar Blue. After 12–24 h, the fluorescence of the reduced dye was measured. Fluorescence intensity as a function of test compound concentration was fit to the Fermi equation, using non-linear least squares regression analysis, to estimate IC50 values.

[6] = tested on: MRSA (S.aureus 13709); assay: MIC, broth microdilution with Alamar Blue; format: cell-based, Staphylococcus aureus; conditions: for Selectivity MRSA: IC50 (MCF10)/MIC (pathogen), both values in µM; for MIC: Staphylococcus aureus, MRSA
Method: as §1

[7] = tested on: TMP-SMZ-resistant MRSA strain; assay: MIC against clinical isolates of MRSA; format: cell-based; conditions: Staphylococcus aureus, clinical isolate, Table 4, read-out: MIC TMP-SMZ^R
[8] = tested on: HepG2 cells; assay: Mammalian cell toxicity (Alamar Blue); format: cell-based; conditions: Homo sapiens, cytotoxicity, 4 h incubation
Method: Fetal calf serum used in these assays was lot matched throughout. All cultures were maintained under a humidified 5% CO2 atmosphere at 37°C, had media refreshed twice weekly and were subcultured by trypsinization and resuspension at a ratio of 1∶5 each week. Toxicity assays were conducted between passages 10–20. Target compound toxicity was measured by incubating the test compound with the cells for 4 h, washing the cells and finally treating the cells with Alamar Blue. After 12–24 h, the fluorescence of the reduced dye was measured. Fluorescence intensity as a function of test compound concentration was fit to the Fermi equation, using non-linear least squares regression analysis, to estimate IC50 values.

[9] = molecular target: T1, Human DHFR (Homo sapiens, UniProt P00374); assay: DHFR enzyme inhibition assay (NADPH oxidation, 340 nm); format: biochemical; conditions: human DHFR; average of at least three measurements; read-out: IC50 (nM) Human
T1 sequence (P00374 1-187): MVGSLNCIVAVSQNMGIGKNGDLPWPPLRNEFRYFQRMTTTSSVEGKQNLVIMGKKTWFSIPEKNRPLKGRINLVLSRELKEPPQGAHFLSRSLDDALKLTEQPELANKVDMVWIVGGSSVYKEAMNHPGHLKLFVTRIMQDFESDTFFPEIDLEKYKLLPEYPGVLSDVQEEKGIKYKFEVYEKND
Method: (§2) Enzyme inhibition assays were performed by monitoring the rate of NADPH oxidation by the DHFR enzyme at an absorbance of 340 nm over five minutes. Assays were performed in the presence of saturating concentrations of NADPH (100 µM) and initiated with dihydrofolate (1 mM). All assays were completed at 25°C in a buffer containing 20 mM TES pH 7.0, 50 mM KCl, 10 mM 2-mercaptoethanol, 0.5 mM EDTA and 1 mg/mL BSA. Inhibition was measured at least three times with inhibitor concentrations near the IC50 value and the average IC50 value is reported with a standard deviation.

[10] = molecular target: S. pyogenes DHFR (Streptococcus pyogenes, UniProt Q9A091); assay: biochemical; format: biochemical; conditions: IC50 (human)/IC50 (pathogen)
Method: (§3) S. aureus DHFR was cloned, expressed and purified as previously described. Briefly, the DHFR gene was inserted into vector pET41 with a His8 tag for purification. The protein was expressed in E. coli BL21 (DE3) cells. […] The protein was concentrated to ∼5 mg/mL. S. pyogenes DHFR was cloned using PCR from genomic DNA and inserted in vector pET-41.
as §2

[11] = molecular target: T2, S. aureus DHFR (Staphylococcus aureus, UniProt P0A017); assay: biochemical; format: biochemical; conditions: for Selectivity (h/Sa): IC50 (human)/IC50 (pathogen)
T2 construct: the DHFR gene was inserted into vector pET41 with a His8 tag for purification; His8; made in house; host or cells: E. coli BL21 (DE3)
Method: as §3, §2

[12] = tested on: VISA Mu50; assay: MIC against clinical isolates of MRSA; format: cell-based; conditions: Staphylococcus aureus, read-out: MIC VISA Mu50
[13] = tested on: USA100 HA-MRSA; assay: MIC against clinical isolates of MRSA; format: cell-based; conditions: Staphylococcus aureus, clinical isolate, read-out: MIC USA100 HA-MRSA
[14] = tested on: MRSA strain containing the F98Y mutation; conditions: cited from earlier work
[15] = 10% FCS, read-out: MIC S. pyogenes +FCS
[16] = 10% FCS, value in parentheses, read-out: MIC S. pyogenes +FCS
[17] = value in parentheses, read-out: MIC S. pyogenes
[18] = 10% fetal calf serum, read-out: MIC MRSA +FCS
[19] = 10% fetal calf serum, value in parentheses, read-out: MIC MRSA +FCS
[20] = value in parentheses, read-out: MIC MRSA
[21] = S. aureus DHFR, average of at least three measurements, read-out: IC50 (nM) Sa

T2 sequence (P0A017 whole entry): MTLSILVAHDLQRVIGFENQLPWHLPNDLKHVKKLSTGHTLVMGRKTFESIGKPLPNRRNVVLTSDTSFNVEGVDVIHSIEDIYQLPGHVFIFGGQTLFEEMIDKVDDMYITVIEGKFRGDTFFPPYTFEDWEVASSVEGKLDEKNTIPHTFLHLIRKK
Chain of S. pyogenes DHFR (Q9A091 entry or part of it): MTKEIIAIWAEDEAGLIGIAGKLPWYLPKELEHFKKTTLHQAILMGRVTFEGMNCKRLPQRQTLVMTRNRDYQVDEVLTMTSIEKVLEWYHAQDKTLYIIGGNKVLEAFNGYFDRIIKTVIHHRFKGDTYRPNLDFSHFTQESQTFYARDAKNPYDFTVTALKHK

Q: Which MIC [1] does the source give for `CCc1nc(N)nc(N)c1C#CCc1cc(OC)cc(-c2ccncc2)c1` [Compound 27] here?
A: Its MIC is 0.045 µg/mL (≈ 0.125 µM).

Q: What about the “Selectivity S. pyogenes” value [2] of the same compound?
A: Its value is 3,272.

Q: What about the MIC [2, 15] of the same compound?
A: The MIC was 0.09 µg/mL.

Q: And the MIC [2, 16]?
A: The MIC was 0.25 µM.

Q: What about the MIC [2, 17] of the same compound?
A: Its MIC is 0.125 µM.

Q: And the MIC ([2]; read-out: MIC S. pyogenes)?
A: The MIC was 0.04 µg/mL.

Q: What about the MIC [3] of the same compound?
A: The MIC was 0.045 µg/mL (≈ 0.125 µM).

Q: And the MIC ([4]; USA300)?
A: Its MIC is 0.045 µg/mL (≈ 0.125 µM).

Q: What about the MIC [4] of the same compound?
A: The MIC was 0.045 µg/mL (≈ 0.125 µM).

Q: And the IC50 [5]?
A: Its IC50 is 409000 nM.

Q: What about the “Selectivity MRSA” value [6] of the same compound?
A: Its value is 3,272.

Q: And the MIC [6, 18]?
A: Its MIC is 0.09 µg/mL.

Q: What about the MIC [6, 19] of the same compound?
A: Its MIC is 0.25 µM.

Q: And the MIC [6, 20]?
A: The MIC was 0.125 µM.

Q: And the MIC ([6]; read-out: MIC MRSA)?
A: Its MIC is 0.04 µg/mL.

Q: What about the MIC [7] of the same compound?
A: The MIC was 0.045 µg/mL (≈ 0.125 µM).

Q: What about the IC50 [8] of the same compound?
A: Its IC50 is 465000 nM.

Q: What about the IC50 [9] of the same compound?
A: The IC50 was 61 ± 5.7 nM.

Q: And the “Selectivity (h/Sp)” value [10]?
A: Its value is 2.

Q: And the IC50 [11]?
A: The IC50 was 12 ± 2.4 nM.

Q: And the “Selectivity (h/Sa)” value [11]?
A: The value was 5.

Q: What about the MIC [12] of the same compound?
A: Its MIC is 0.18 µg/mL (≈ 0.501 µM).

Q: What about the MIC ([13]; USA100) of the same compound?
A: Its MIC is 0.045 µg/mL (≈ 0.125 µM).

Q: And the MIC ([13]; first USA100 column)?
A: The MIC was 2.9 µg/mL (≈ 8.07 µM).

Q: What about the MIC ([13]; third USA100 column) of the same compound?
A: Its MIC is 0.045 µg/mL (≈ 0.125 µM).

Q: With `CCc1nc(N)nc(N)c1C#CCc1cccc(-c2ccncc2)c1` [Compound 28] as the compound, how does the MIC [1] read?
A: Its MIC is 0.045 µg/mL (≈ 0.137 µM).

Q: What about the “Selectivity S. pyogenes” value [2] of the same compound?
A: Its value is 3,800.

Q: What about the MIC [2, 15] of the same compound?
A: The MIC was 0.09 µg/mL.

Q: What about the MIC [2, 16] of the same compound?
A: The MIC was 0.25 µM.

Q: And the MIC [2, 17]?
A: Its MIC is 0.125 µM.

Q: And the MIC ([2]; read-out: MIC S. pyogenes)?
A: The MIC was 0.04 µg/mL.

Q: And the MIC [3]?
A: Its MIC is 0.045 µg/mL (≈ 0.137 µM).

Q: What about the MIC ([4]; USA300) of the same compound?
A: Its MIC is 0.045 µg/mL (≈ 0.137 µM).

Q: What about the MIC [4] of the same compound?
A: Its MIC is 0.045 µg/mL (≈ 0.137 µM).

Q: And the IC50 [5]?
A: The IC50 was 475000 nM.

Q: What about the “Selectivity MRSA” value [6] of the same compound?
A: The value was 1,900.

Q: What about the MIC [6, 18] of the same compound?
A: Its MIC is 0.16 µg/mL.

Q: What about the MIC [6, 19] of the same compound?
A: The MIC was 0.5 µM.

Q: And the MIC [6, 20]?
A: The MIC was 0.25 µM.

Q: And the MIC ([6]; read-out: MIC MRSA)?
A: The MIC was 0.08 µg/mL.

Q: What about the MIC [7] of the same compound?
A: The MIC was 0.045 µg/mL (≈ 0.137 µM).

Q: What about the IC50 [8] of the same compound?
A: The IC50 was over 500000 nM.

Q: What about the IC50 [9] of the same compound?
A: Its IC50 is 520 ± 23 nM.

Q: What about the “Selectivity (h/Sp)” value [10] of the same compound?
A: Its value is 17.

Q: And the “Selectivity (h/Sa)” value [11]?
A: Its value is 26.

Q: What about the IC50 [11, 21] of the same compound?
A: The IC50 was 20 ± 0.5 nM.

Q: What about the MIC [12] of the same compound?
A: Its MIC is 0.09 µg/mL (≈ 0.273 µM).

Q: And the MIC ([13]; USA100)?
A: The MIC was 0.045 µg/mL (≈ 0.137 µM).

Q: And the MIC ([13]; first USA100 column)?
A: Its MIC is 2.9 µg/mL (≈ 8.8 µM).

Q: And the MIC ([13]; third USA100 column)?
A: The MIC was 0.045 µg/mL (≈ 0.137 µM).

Q: What does the source list for `CCc1nc(N)nc(N)c1C#CCc1cccc(-c2cccnc2)c1` [Compound 36]?
A: MIC [1]: 0.36 µg/mL (≈ 1.09 µM); Selectivity S. pyogenes [2]: >2,000; MIC [2, 17]: 0.25 µM; MIC ([2]; read-out: MIC S. pyogenes): 0.08 µg/mL; MIC [3]: 0.36 µg/mL (≈ 1.09 µM); MIC ([4]; USA300): 0.36 µg/mL (≈ 1.09 µM); MIC [4]: 0.02 µg/mL (≈ 0.0607 µM); IC50 [5]: > 500000 nM; Selectivity MRSA [6]: >4,000; MIC [6, 20]: 0.125 µM; MIC ([6]; read-out: MIC MRSA): 0.041 µg/mL; MIC [7]: 0.045 µg/mL (≈ 0.137 µM); IC50 [8]: > 500000 nM; IC50 [9]: 290 ± 15 nM; Selectivity (h/Sp) [10]: 6; Selectivity (h/Sa) [11]: 9; IC50 [11, 21]: 33 ± 0.5 nM; MIC [12]: 0.72 µg/mL (≈ 2.19 µM); MIC ([13]; USA100): 0.36 µg/mL (≈ 1.09 µM); MIC ([13]; first USA100 column): 5.76 µg/mL (≈ 17.5 µM); MIC ([13]; third USA100 column): 0.09 µg/mL (≈ 0.273 µM)

Q: Which results are given for `COc1cc(Cc2cnc(N)nc2N)cc(OC)c1OC` [TMP, trimethoprim, reference compound]?
A: MIC [2, 15]: 0.58 µg/mL; MIC [2, 16]: 2 µM; MIC [2, 17]: 2 µM; MIC ([2]; read-out: MIC S. pyogenes): 0.58 µg/mL; MIC MRSA [6]: 0.14 µg/mL (≈ 0.482 µM); MIC MRSA +FCS ([6]; 10% fetal calf serum): 0.14 µg/mL (≈ 0.482 µM); MIC [6, 19]: 0.5 µM; MIC [6, 20]: 0.5 µM; MIC against the F98Y strain [14]: 16 µg/mL (≈ 55.1 µM)
